Assay results as given in US7220772B2, “Pyrazole derivatives” (Pfizer, Inc., priority 2003, dated 2007).

Legend:
[1] = molecular target: T1, HIV-1 reverse transcriptase (Human immunodeficiency virus type 1 group M subtype B, UniProt P04585); experiment: Inhibition of HIV-1 Reverse Transcriptase Enzyme; type: biochemical; conditions: purified recombinant HIV-1 RT expressed in Escherichia Coli; [3H]-SPA or [3H]-flashplate enzyme assay; 5% final DMSO
T1 construct: purified recombinant HIV-1 reverse transcriptase (RT, EC, 2.7.7.49) obtained by expression in Escherichia Coli; made in house; host or cells: Escherichia coli
Description: The activity of the compounds of the invention as reverse transcriptase inhibitors may be measured using the following assay.
Inhibition of HIV-1 Reverse Transcriptase Enzyme
Using purified recombinant HIV-1 reverse transcriptase (RT, EC, 2.7.7.49) obtained by expression in Escherichia Coli, a 96-well plate assay system is established for assaying a large number of samples using either the Poly(rA)-oligo(dT) Reverse Transcriptase [3H]-SPA enzyme assay system (Amersham NK9020) or the [3H]-flashplate enzyme assay system (NEN-SMP 103) and following the manufacturer's recommendations. The compounds are dissolved in 100% DMSO and diluted with the appropriate buffer to a 5% final DMSO concentration. The inhibitory activity is expressed in percent inhibition relative to DMSO control.

| Compound | IC50 [1] [µM] | melting point [°C] |
| --- | --- | --- |
| CCc1n[nH]c(CCOc2ccc(SC)cc2)c1Oc1cc(C#N)cc(C#N)c1 [Example 1, 5-[(3-Ethyl-5-{2-[4-(methylsulfanyl)phenoxy]ethyl}-1H-pyrazol-4-yl)oxy]isophthalonitrile] | 0.002 |  |
| CCc1n[nH]c(CCOc2ccc(S(C)(=O)=O)cc2)c1Oc1cc(C#N)cc(C#N)c1 [Example 3, 5-[(3-Ethyl-5-{2-[4-(methylsulfonyl)phenoxy]ethyl}-1H-pyrazol-4-yl)oxy]isophthalonitrile] | 0.045 | 88 to 90 |
